{
  "source": "patent US9181218B2",
  "about": "“Compounds for improved stem cell differentiation into hepatocytes” (Hoffmann-La Roche Inc., priority 2013, dated 2015)",
  "key": {"[1]": {"experiment": "Microarray analysis of iCell Hepatocytes treated with the compound of example 1", "assay_type": "cell-based, Human", "settings": "2 HOUR", "description": "iCell Hepatocytes treated with the compound of example 1 results in the up and down-regulation of a host of genes; including a kinetic effect on interferon-stimulated gene (ISGs) expression. See FIGS. 15-I and 15-II, 16-I and 16-II and 18 and Table 1."}, "HBV": {"test_system": "HBV", "experiment": "Infection of iCell Hepatocytes with HBV", "assay_type": "cell-based, hepatitis B virus (HBV)", "description": "Two hundred microliters of HBV-containing serum was applied onto a 10-50% Optiprep gradient in SW41 tubes. Samples were centrifuged at 100,000×g for 2 hr at 4 C. Five hundred microliters fractions were collected from the top; each fraction was analyzed for HBsAg (ELISA) and HBV DNA (TaqMan PCR). Fractions containing virus were stored at −80 C.\nFresh iCell® Hepatocytes (day 20-23) were plated and cultured according to iCell Hepatocytes Dissociation and Plating User's Guide at 60 k cells per well in 96 well BIO Collagen IV coated plates (BD Cat#354429) 4 Hours post plating Medium C was removed and replaced with a 1:50 Matrigel (Cat#354227) overlay in Medium D. Twenty four hours post plating, cells were treated with 1 uM of the compound of example 1 in Medium D containing 1% DMSO. Media containing fresh compound was replenished 2 days later. At day 4 post plating, cells were infected with HBV at MOI (multiplicity of infection) of 10. Briefly, purified virus was diluted in medium D containing the compound of example 1 and incubated with cells for 4-6 hr or overnight. After removal of virus inoculum, fresh media containing 1 uM of the compound of example 1 was added and cells were incubated for 14 days with a medium change every 2 days. Culture media were analyzed for secreted viral antigens (HBsAg, HBeAg) and HBV DNA."}},
  "data": [
    {"smiles": "O=C(NCc1cccc(F)c1)c1cccc2nc(-c3c(NC[C@@H](O)c4ccccc4)cc[nH]c3=O)[nH]c12", "note": "[Example 1, 2-[4-((S)-2-hydroxy-2-phenyl-ethylamino)-2-oxo-1,2-dihydro-pyridin-3-yl]-3H-benzoimidazole-4-carboxylic acid 3-fluoro-benzylamide]", "values": [
      {"measurement": "ABCA9 Raw Est Fold Change", "setting": "[1]", "value": "−4.37"},
      {"measurement": "PCP4 Raw Est Fold Change", "setting": "[1]", "value": "−2.44"},
      {"measurement": "infection of the four major HBV genotypes", "setting": "HBV; iCell hepatocytes treated with compound", "value": "support robust infection of all four major HBV genotypes"},
      {"measurement": "infection with patient-derived vs cell culture-derived (HepG2.2.15) HBV", "setting": "HBV; iCell hepatocytes treated with compound, FIG. 8", "value": "support infection of patient-derived, but not cell culture-derived, HBV"},
      {"measurement": "cell susceptibility to HBV infection", "setting": "HBV; iCell hepatocytes, FIG. 3", "value": "cell susceptibility to HBV infection that occurred in a dose-dependent manner"},
      {"measurement": "need for compound presence to maintain robust viral infection", "setting": "HBV; pre-treated 6 d vs pre-treated and during infection (throughout)", "value": "Continuous presence of the compound of example 1 is required"}
    ]}
  ]
}
